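Growth conditions: 96-well plates. Treatment: test compound, 48 hours, 5 concentrations. Analysis: linear interpolation between bracketing concentrations; unreached endpoints set to highest concentration. GI50: concentration for 50% inhibition of growth.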 Active and inactive are the calls of the source. Rule as the data show it: active = GI50 up to about 1.1 µM and inactive = higher.
What was measured:
Assay in all cases: NCI-60 cell line screen, 48 h
SR = test system: SR
HCT-116 = test system: HCT-116
HT-29 = test system: HT-29
SF-268 = test system: SF-268
Malme-3M = test system: Malme-3M
OVCAR-3 = test system: OVCAR-3
NCI-H23 = test system: NCI-H23
OVCAR-5 = test system: OVCAR-5
CCRF-CEM = test system: CCRF-CEM
U-251 = test system: U-251
UO-31 = test system: UO-31
MDA-N = test system: MDA-N
T47D = test system: T47D
NCI/ADR-RES = test system: NCI/ADR-RES
NCI-H460 = test system: NCI-H460
EKVX = test system: EKVX
RXF 393 = test system: RXF 393
MOLT-4 = test system: MOLT-4
COLO 205 = test system: COLO 205
SNB-75 = test system: SNB-75
OVCAR-4 = test system: OVCAR-4
BT-549 = test system: BT-549
A549 = test system: A549
MDA-MB-231 = test system: MDA-MB-231
SK-MEL-28 = test system: SK-MEL-28
KM12 = test system: KM12
SNB-19 = test system: SNB-19
HOP-62 = test system: HOP-62
OVCAR-8 = test system: OVCAR-8
RPMI-8226 = test system: RPMI-8226
M14 = test system: M14
SN12C = test system: SN12C
HL-60 = test system: HL-60
SK-MEL-2 = test system: SK-MEL-2
786-0 = test system: 786-0
SK-MEL-5 = test system: SK-MEL-5
HCT-15 = test system: HCT-15
TK-10 = test system: TK-10
K562 = test system: K562
NCI-H522 = test system: NCI-H522
UACC-257 = test system: UACC-257
A498 = test system: A498
CAKI-1 = test system: CAKI-1
MDA-MB-435 = test system: MDA-MB-435
DU-145 = test system: DU-145
SF-539 = test system: SF-539
IGROV-1 = test system: IGROV-1
ACHN = test system: ACHN
SF-295 = test system: SF-295
PC-3 = test system: PC-3
SK-OV-3 = test system: SK-OV-3
MCF7 = test system: MCF7
LOX IMVI = test system: LOX IMVI
Hs-578T = test system: Hs-578T
HCC 2998 = test system: HCC 2998
HOP-92 = test system: HOP-92
SW-620 = test system: SW-620
NCI-H226 = test system: NCI-H226
UACC-62 = test system: UACC-62

Structure (SMILES): CCCN(CCC)C(=S)N/N=C/c1ccccn1
- GI50 (SR): < 0.01 µM (active)
- GI50 (HCT-116): < 0.01 µM (active)
- GI50 (HT-29): < 0.01 µM (active)
- GI50 (SF-268): < 0.0135 µM (active)
- GI50 (Malme-3M): 0.0463 µM (active)
- GI50 (OVCAR-3): < 0.01 µM (active)
- GI50 (NCI-H23): < 0.01 µM (active)
- GI50 (OVCAR-5): < 0.0482 µM (active)
- GI50 (CCRF-CEM): < 0.01 µM (active)
- GI50 (U-251): < 0.0138 µM (active)
- GI50 (UO-31): 0.0239 µM (active)
- GI50 (MDA-N): 0.0989 µM (active)
- GI50 (T47D): < 0.01 µM (active)
- GI50 (NCI/ADR-RES): < 0.01 µM (active)
- GI50 (NCI-H460): 0.0103 µM (active)
- GI50 (EKVX): 0.046 µM (active)
- GI50 (RXF 393): 0.0566 µM (active)
- GI50 (MOLT-4): < 0.01 µM (active)
- GI50 (COLO 205): < 0.0186 µM (active)
- GI50 (SNB-75): 0.0586 µM (active)
- GI50 (OVCAR-4): < 0.01 µM (active)
- GI50 (BT-549): 0.341 µM (active)
- GI50 (A549): < 0.0138 µM (active)
- GI50 (MDA-MB-231): < 0.01 µM (active)
- GI50 (SK-MEL-28): 0.17 µM (active)
- GI50 (KM12): < 0.0139 µM (active)
- GI50 (SNB-19): 0.282 µM (active)
- GI50 (HOP-62): < 0.01 µM (active)
- GI50 (OVCAR-8): < 0.01 µM (active)
- GI50 (RPMI-8226): < 0.01 µM (active)
- GI50 (M14): < 0.0125 µM (active)
- GI50 (SN12C): < 0.0195 µM (active)
- GI50 (HL-60): < 0.01 µM (active)
- GI50 (SK-MEL-2): < 0.0385 µM (active)
- GI50 (786-0): < 0.01 µM (active)
- GI50 (SK-MEL-5): < 0.0173 µM (active)
- GI50 (HCT-15): < 0.01 µM
- GI50 (TK-10): 0.0203 µM (active)
- GI50 (K562): < 0.01 µM (active)
- GI50 (NCI-H522): < 0.01 µM (active)
- GI50 (UACC-257): < 0.01 µM (active)
- GI50 (A498): 0.0372 µM (active)
- GI50 (CAKI-1): 0.0169 µM (active)
- GI50 (MDA-MB-435): 0.17 µM (active)
- GI50 (DU-145): 0.143 µM (active)
- GI50 (SF-539): 0.118 µM (active)
- GI50 (IGROV-1): < 0.01 µM (active)
- GI50 (ACHN): < 0.01 µM (active)
- GI50 (SF-295): 0.0468 µM (active)
- GI50 (PC-3): < 0.01 µM (active)
- GI50 (SK-OV-3): < 0.012 µM (active)
- GI50 (MCF7): < 0.01 µM (active)
- GI50 (LOX IMVI): < 0.01 µM (active)
- GI50 (Hs-578T): 2.96 µM (inactive)
- GI50 (HCC 2998): 0.398 µM (active)
- GI50 (HOP-92): 0.169 µM (active)
- GI50 (SW-620): < 0.014 µM (active)

Structure (SMILES): O=Cc1ccc2ccocc1-2
- GI50 (SR): > 100 µM (inactive)
- GI50 (HCT-116): > 100 µM (inactive)
- GI50 (HT-29): > 100 µM (inactive)
- GI50 (SF-268): > 100 µM (inactive)
- GI50 (OVCAR-3): > 100 µM (inactive)
- GI50 (NCI-H23): > 100 µM (inactive)
- GI50 (OVCAR-5): > 100 µM (inactive)
- GI50 (NCI-H226): > 100 µM (inactive)
- GI50 (CCRF-CEM): > 100 µM (inactive)
- GI50 (U-251): > 100 µM (inactive)
- GI50 (UO-31): > 100 µM (inactive)
- GI50 (MDA-N): > 100 µM (inactive)
- GI50 (T47D): > 100 µM (inactive)
- GI50 (NCI/ADR-RES): > 100 µM (inactive)
- GI50 (NCI-H460): > 100 µM (inactive)
- GI50 (EKVX): > 100 µM (inactive)
- GI50 (RXF 393): > 100 µM (inactive)
- GI50 (MOLT-4): > 100 µM (inactive)
- GI50 (COLO 205): > 100 µM (inactive)
- GI50 (OVCAR-4): > 100 µM (inactive)
- GI50 (BT-549): > 100 µM (inactive)
- GI50 (A549): > 100 µM (inactive)
- GI50 (MDA-MB-231): > 100 µM (inactive)
- GI50 (KM12): > 100 µM (inactive)
- GI50 (SNB-19): > 100 µM (inactive)
- GI50 (HOP-62): > 100 µM (inactive)
- GI50 (OVCAR-8): > 100 µM (inactive)
- GI50 (RPMI-8226): > 100 µM (inactive)
- GI50 (M14): > 100 µM (inactive)
- GI50 (SN12C): > 100 µM (inactive)
- GI50 (HL-60): > 100 µM (inactive)
- GI50 (SK-MEL-2): > 100 µM (inactive)
- GI50 (786-0): > 100 µM (inactive)
- GI50 (SK-MEL-5): > 100 µM (inactive)
- GI50 (HCT-15): > 100 µM
- GI50 (TK-10): > 100 µM (inactive)
- GI50 (K562): > 100 µM (inactive)
- GI50 (NCI-H522): > 100 µM (inactive)
- GI50 (UACC-257): > 100 µM (inactive)
- GI50 (A498): > 100 µM (inactive)
- GI50 (CAKI-1): > 100 µM (inactive)
- GI50 (MDA-MB-435): > 100 µM (inactive)
- GI50 (DU-145): > 100 µM (inactive)
- GI50 (SF-539): > 100 µM (inactive)
- GI50 (IGROV-1): > 100 µM (inactive)
- GI50 (ACHN): > 100 µM (inactive)
- GI50 (SF-295): > 100 µM (inactive)
- GI50 (PC-3): > 100 µM (inactive)
- GI50 (SK-OV-3): > 100 µM (inactive)
- GI50 (MCF7): > 100 µM (inactive)
- GI50 (LOX IMVI): > 100 µM (inactive)
- GI50 (Hs-578T): > 100 µM (inactive)
- GI50 (HCC 2998): > 100 µM (inactive)
- GI50 (HOP-92): > 100 µM (inactive)
- GI50 (UACC-62): > 100 µM (inactive)
- GI50 (SW-620): > 100 µM (inactive)

Structure (SMILES): Cc1cc(S(=O)(=O)n2ccnc2Oc2cccc(Cl)c2)c(SSc2cc(Cl)c(C)cc2S(=O)(=O)n2ccnc2Oc2cccc(Cl)c2)cc1Cl
- GI50 (SR): 9.06 µM (inactive)
- GI50 (HCT-116): 6.19 µM (inactive)
- GI50 (HT-29): 7.83 µM (inactive)
- GI50 (SF-268): 7.43 µM (inactive)
- GI50 (Malme-3M): 5.74 µM (inactive)
- GI50 (OVCAR-3): 8.02 µM (inactive)
- GI50 (NCI-H23): 6.32 µM (inactive)
- GI50 (OVCAR-5): 10.4 µM (inactive)
- GI50 (NCI-H226): 6.37 µM (inactive)
- GI50 (CCRF-CEM): 2.81 µM (inactive)
- GI50 (U-251): 3.18 µM (inactive)
- GI50 (UO-31): 5.96 µM (inactive)
- GI50 (MDA-N): 8.38 µM (inactive)
- GI50 (T47D): 2.98 µM (inactive)
- GI50 (NCI/ADR-RES): 3.1 µM (inactive)
- GI50 (NCI-H460): 7.8 µM (inactive)
- GI50 (EKVX): 4 µM (inactive)
- GI50 (RXF 393): 3.08 µM (inactive)
- GI50 (MOLT-4): 4.14 µM (inactive)
- GI50 (COLO 205): 2.57 µM (inactive)
- GI50 (SNB-75): 7.59 µM (inactive)
- GI50 (OVCAR-4): 9.57 µM (inactive)
- GI50 (BT-549): 4.3 µM (inactive)
- GI50 (A549): 7.06 µM (inactive)
- GI50 (MDA-MB-231): 12.4 µM (inactive)
- GI50 (SK-MEL-28): 14.1 µM (inactive)
- GI50 (KM12): 5.66 µM (inactive)
- GI50 (HOP-62): 9.57 µM (inactive)
- GI50 (OVCAR-8): 6.59 µM (inactive)
- GI50 (RPMI-8226): 2.67 µM (inactive)
- GI50 (M14): 7.89 µM (inactive)
- GI50 (SN12C): 8.87 µM (inactive)
- GI50 (HL-60): 4.18 µM (inactive)
- GI50 (SK-MEL-2): 7.66 µM (inactive)
- GI50 (786-0): 6.79 µM (inactive)
- GI50 (SK-MEL-5): 3.42 µM (inactive)
- GI50 (HCT-15): 8.67 µM
- GI50 (TK-10): 29 µM (inactive)
- GI50 (K562): 9.93 µM (inactive)
- GI50 (UACC-257): 8.09 µM (inactive)
- GI50 (A498): 12.2 µM (inactive)
- GI50 (CAKI-1): 10.9 µM (inactive)
- GI50 (MDA-MB-435): 5.65 µM (inactive)
- GI50 (DU-145): 5.32 µM (inactive)
- GI50 (SF-539): 4.54 µM (inactive)
- GI50 (IGROV-1): 8.13 µM (inactive)
- GI50 (ACHN): 8.36 µM (inactive)
- GI50 (SF-295): 4.19 µM (inactive)
- GI50 (PC-3): 6.11 µM (inactive)
- GI50 (SK-OV-3): 12.4 µM (inactive)
- GI50 (MCF7): 3.21 µM (inactive)
- GI50 (LOX IMVI): 30 µM (inactive)
- GI50 (Hs-578T): 4.19 µM (inactive)
- GI50 (HCC 2998): 20.7 µM (inactive)
- GI50 (HOP-92): 4.39 µM (inactive)
- GI50 (UACC-62): 5.7 µM (inactive)
- GI50 (SW-620): 11.7 µM (inactive)
